PMC4457840, “Differential Inhibition of Signal Peptide Peptidase Family Members by Established γ-Secretase Inhibitors” (PLoS ONE, 2015)
“Also recorded” adds a separate entry of the source. Numbered stars: 1 amine (or outer) side, 2 acyl side, 3 side chain; on linkers, the order of the positions; unused ones are H or OH. Square brackets hold non-standard residues; d marks the D form. Peptide text beside a SMILES is read from it. * marks the point of attachment. X1 = CC(N[*:1])C(=O)C(F)(F)C(=O)[*:2]; Boc = CC(C)(C)OC(=O)*

Columns and labels:
SPPL2a [1] = molecular target: T1, SPPL2a (Homo sapiens, UniProt Q8TCT8); assay: FBA/SPPL2a co-transfected HEK 293T cell cleavage assay (Aβ ELISA, Western blot); format: cell-based; conditions: overnight
T1 construct: expressed in transfected cells; host or cells: HEK 293T
T1 sequence (Q8TCT8 26-520): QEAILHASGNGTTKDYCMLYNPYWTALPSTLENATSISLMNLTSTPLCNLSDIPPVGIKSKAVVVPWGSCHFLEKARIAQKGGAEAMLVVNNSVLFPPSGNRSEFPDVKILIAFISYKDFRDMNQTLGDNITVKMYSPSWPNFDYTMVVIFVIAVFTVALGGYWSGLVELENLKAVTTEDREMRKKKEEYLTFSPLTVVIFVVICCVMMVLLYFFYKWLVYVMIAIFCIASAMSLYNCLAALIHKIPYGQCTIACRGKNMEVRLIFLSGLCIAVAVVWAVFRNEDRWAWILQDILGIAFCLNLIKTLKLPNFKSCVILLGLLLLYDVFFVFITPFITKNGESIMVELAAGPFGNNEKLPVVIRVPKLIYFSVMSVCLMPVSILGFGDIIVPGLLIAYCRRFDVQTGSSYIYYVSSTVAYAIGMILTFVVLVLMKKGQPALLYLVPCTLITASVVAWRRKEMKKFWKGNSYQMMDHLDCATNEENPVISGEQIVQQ

γ-secretase = test system: γ-secretase; design: method as in PMID 24352661, PMID 23791707; conditions: cited from earlier work
SPPL2a [2] = molecular target: T1, SPPL2a; assay: FBA/SPPL2a co-transfected HEK 293T cell cleavage assay (Aβ ELISA, Western blot); format: cell-based; conditions: for inhibition of xAβ1-25/K16A secretion (in words) / inhibition at 25 µM: 25 μM; for IC50: HEK cells, 24 h, xAβ1-25/K16A by Aβ ELISA, mean ± standard error, read-out: IC50 on FBA/SPPL co-transfected cells; for inhibition at 25 µM: HEK-293T, DMSO = 100%, read-out: inhibition of the SPP/SPPLs; for rank order of inhibition: number in parenthesis in Table 3
Description: (§1) Expression constructs in pcDNA6 for COOH-terminal FLAG (DYKDDDDK) and strep (WSHPQFEK) tagged SPPL2a, SPPL2b, hSPP and pSPP were generated as previously described. Untagged versions of all enzymes were also made and ligated into the pAG3 vector. Substrates (Fig 1) were designed as follows: FLAG-BRI2_1-81- Aβ1-25/K16A (FBA). The K16A mutation was incorporated to prevent potential α-secretase cleavage that would preclude ELISA based detection of the released COOH-terminal fragment. The substrate DNA was cloned into the expression vector pcDNA6. Constructs were confirmed by DNA sequencing. The overexpression of substrates was performed by transiently transfecting human embryonic kidney (HEK 293T) cells with or without SPP/SPPL vectors. Cells were grown in DMEM media supplemented with Hyclone 10% fetal bovine serum (GE, Logan, Utah, USA) and 1% penicillin/streptomycin (Life Technologies, Grand Island, NY, USA). Briefly, 2.7 μg DNA was applied to a 75% confluent 6 well plate (Corning, Tewksbury, MA, USA) using the polycation polyethylenimine (PEI) transfection method. Inhibitor testing experiments were conducted in 48 well plates with appropriately adjusted amounts of DNA and PEI and incubated 12–16 hours, after which the growth medium was replaced with fresh medium. DMSO (Sigma, St. Louis, MO, USA) and GSIs were added at the appropriate concentration. The GSIs, L685,458 and Compound W were purchased from Tocris (Tocris, Bristol, UK). (Z-LL)2 ketone, Compound E, DAPT, GSI II were purchased from Calbiochem (Merck Millipore, Billerica, MA, USA). LY-411,575 was synthesized by A. Fauq at the Mayo Clinic Chemical Core. Twenty-four hours later, the medium was collected for assay by ELISA and MS. A20 cells (TIB-208) (ATCC, Manassas, VA, USA) were cultured in RPMI-1640 medium (ATCC) supplied with 10% fetal bovine serum, 1% penicillin/streptomycin and 0.05 mM 2-mercaptoethanol (Life Technologies). At the density of 5x10^5 cells/ml, A20 cells were spun down at 1000 g for 2 min and resuspended in fresh medium supplied with DMSO or GSIs and incubated for 16 hr.
(§2) Sandwich ELISAs used for Aβ detection were performed as previously described. Briefly, Aβ and Aβ adducts with substrate TMD in conditioned media was captured with Ab5 antibody (human Aβ1–16 specific) and detected with horseradish peroxidase mAb 4G8 (Covance, Princeton, NJ, USA). Synthetic Aβ1–40 was used as standard. All ELISAs were developed with TMB substrate (KPL, Gaithersburg, Maryland, USA). Bis-Tris precast gels (Biorad, Hercules, CA, USA) were used for all SDS-PAGE. Monoclonal anti-FLAG M2 antibody (Sigma) and Aβ1–16 antibody 6E10 (Covance) were used for Western blotting. Antisera against SPPL2a, SPPL2b, hSPP and pSPP were generated as previously described and were used at dilution of 1:1000 for Western blotting. Anti-CD74 In-1 antibody (BD Bioscience, San Jose, CA, USA) was used for A20 cell lysate Western blotting at dilution of 1:1000.

SPPL2a [3] = test system: T2, SPPL2a; assay: Endogenous CD74 NTF P8 turnover in non-overexpressing A20 cells (Western blot, In-1 antibody); format: cell-based, mouse; conditions: for stabilization of the CD74 8 kDa NTF P8: 25 μM, 16 hr; for dose response of P8 fragment stabilization (in words): different doses; for lowest concentration inhibiting P8 turnover: dose response
T2 construct: endogenous SPPL2a cleavage of CD74 in a murine B-Cell line; host or cells: A20 mouse B lymphocyte cells
Experimental: as §1, with “Untagged” for “Expression constructs in pcDNA6 for COOH-terminal FLAG (DYKDDDDK) and strep (WSHPQFEK) tagged SPPL2a, SPPL2b, hSPP and pSPP were generated as previously described. Untagged”
as §2

SPP = test system: SPP; design: method as in PMID 15252014, PMID 19337374, PMID 12621027; conditions: cited from earlier work

SMILES	inhibition at 10 µM (SPPL2a [1]) [%]	inhibition of γ-secretase cleavage of APP (γ-secretase)	FBA cleavage by co-transfected SPPL (in words) (SPPL2a [2]; 10 μM, Aβ ELISA, Fig 1D)	generation of the SPP/SPPL dependent 10 kDa ICD (SPPL2a [2]; 10 μM, Western blot anti-FLAG M2)	inhibition of xAβ1-25/K16A secretion (in words) (SPPL2a [2]; ELISA)	IC50 (SPPL2a [2]) [nM]	inhibition at 25 µM (SPPL2a [2]; ELISA) [%]	rank order of inhibition (SPPL2a [2])	stabilization of the CD74 8 kDa NTF P8 (SPPL2a [3])	dose response of P8 fragment stabilization (in words) (SPPL2a [3])	lowest concentration inhibiting P8 turnover (SPPL2a [3]) [nM]	inhibition of SPPL2a in dose response (SPPL2a [2]; at the doses tested, ELISA) [%]	inhibition of SPP activity (SPP)
CC(C)C[C@H](NC(=O)OCc1ccccc1)C(=O)N[C@@H](CC(C)C)C(=O)NCC(=O)CNC(=O)[C@H](CC(C)C)NC(=O)[C@H](CC(C)C)NC(=O)OCc1ccccc1 [(Z-LL)2 ketone]	> 75	does not inhibit	largely inhibited	significantly reduced	largely inhibited	177 ± 99	> 90	2	greatly stabilized	stabilized the P8 fragment in a dose dependent manner	40		
C[C@H](NC(=O)Cc1cc(F)cc(F)c1)C(=O)N[C@H]1N=C(c2ccccc2)c2ccccc2N(C)C1=O [Compound E]									did not show significant effects			< 50	
C[C@H](NC(=O)Cc1cc(F)cc(F)c1)C(=O)NC(C(=O)OC(C)(C)C)c1ccccc1 (stereo partly drawn) [DAPT]					does not inhibit				no inhibition				selectively inhibit PSENs, but not SPPs
CC[C@H](C)[C@H](NC(=O)[C@@H](NC(=O)OC(C)(C)C)C(C)C)C(=O)NC(C)C(=O)C(F)(F)C(=O)N[C@H](C(=O)N[C@H](C(=O)OC)[C@@H](C)CC)C(C)C (stereo partly drawn) [GSI II] (Boc-VI[X1]VI-OMe)					efficiently inhibited; also recorded: largely inhibited	8800 ± 94		4	greatly stabilized	stabilized the P8 fragment in a dose dependent manner	40		
C[C@H](NC(=O)[C@@H](O)c1cc(F)cc(F)c1)C(=O)N[C@@H]1C(=O)N(C)c2ccccc2-c2ccccc21 [LY-411,575]					largely inhibited	51 ± 79	> 90	1	greatly stabilized	stabilized the P8 fragment in a dose dependent manner	40		inhibit the activity of SPP
